Each structure is given as a SMILES string.

This assay in a line: Sensory evaluation of coolant mixtures by a panel of 5 trained testers (cooling effect and flavor profile) in a standard chewy candy preparation. The assay is classed as in vivo. The following applies: panel score (5)=very true to (0)=largely not true; mean values of 5 trained testers; unsweetened, non-aromatized standard chewy candy preparation. The method, then:
The cooling effect and flavor profile of various coolant mixtures were evaluated by a panel consisting of 5 trained testers. For this purpose, the mixtures were incorporated into an unsweetened and non-aromatized standard chewy candy preparation. The evaluation was reported according to the notation (5)=very true to (0)=largely not true. Data are mean values.
`CC(C)C(=O)O` [C3, Isobutyric acid]: the “Cooling effect is strong” value came to 3.0 and the “Cooling effect occurs rapidly” value was determined as 2.2.

As to `CC(C)C=O` [C1, Isobutyraldehyde], the “Cooling effect is strong” value is on record as 3.2 and the “Cooling effect occurs rapidly” value is given as 2.1.

As for `CC(C)CC(=O)O` [C4, Isovaleric acid], the “Cooling effect is strong” value stood at 3.1 and the “Cooling effect occurs rapidly” value came out at 2.5.

As to `CC(C)CC=O` [C2, Isovaleraldehyde], the “Cooling effect is strong” value is 3.1 and the “Cooling effect occurs rapidly” value turned out to be 2.0.

Values taken from patent US10933039B2, “Coolant mixtures” (Symrise AG, priority 2016, dated 2021).
